Test results reported in paper PMC6920875, “Dithiocarbamate as a Valuable Scaffold for the Inhibition of Metallo-β-Lactmases” (Biomolecules, 2019).

Target: T1, ImiS (Aeromonas veronii, UniProt O31272)
T1 construct: made in house; host or cells: E. coli BL21 (DE3), plasmid pET-26b-ImiS
Experiment: Inhibitor reversibility, activity recovery after rapid 100-fold dilution
Type: biochemical, Aeromonas veronii bv. sobria
Settings: 5.0 μM enzyme, 0.7 μM inhibitor, 10 min pre-incubation
Protocol: It can be observed in Figure 4d–f that the Q value remains almost unchanged in the presence or absence of inhibitors, likely because the formation of the enzyme-inhibitor complex (EI), that slowed down substrate hydrolysis, was reversible. […] We assayed the binding reversibility of DC1 to MβLs by measuring the enzymatic activity recovery after a large, rapid dilution of the MβL-DC1 complex.
Determination of inhibitor reversibility
NDM-1, ImiS and L1 were incubated at a concentration of 1.3, 5.0 and 5.8 μM, which is 100-fold over the concentration required for the activity assay, with DC1 at a concentration of 1.5, 0.7 and […]
After 10 minutes pre-incubation, the recovery of enzymatic activity was determined after rapid and large dilution (100-fold) with the reaction […]
Figure S2. Recovery of NDM-1 (a), ImiS (b) and L1 (c) activity after rapid dilution of the enzyme-inhibitor complex. The curve in black refers to the control sample pre-incubated and diluted in the absence of inhibitor. Curves in red refer to MβLs pre-incubated with DC1. […]

T1 sequence (O31272 28-255 limits assumed): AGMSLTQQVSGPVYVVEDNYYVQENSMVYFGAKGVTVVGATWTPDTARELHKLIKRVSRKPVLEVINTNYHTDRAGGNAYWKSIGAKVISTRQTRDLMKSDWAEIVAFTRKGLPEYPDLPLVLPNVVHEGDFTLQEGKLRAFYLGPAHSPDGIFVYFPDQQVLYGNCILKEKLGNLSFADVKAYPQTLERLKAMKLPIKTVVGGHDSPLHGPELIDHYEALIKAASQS

Q: With `O=C(NNC(=S)[S][K])c1ccccc1O` [DC1] as the compound, how does the “reversibility, recovery of ImiS activity after rapid dilution” value read?
A: Its value is “reversible inhibitor”.
